From paper PMC9643456, “Matching amino acids membrane preference profile to improve activity of antimicrobial peptides” (Communications Biology, 2022)
Values after ≈ are worked out from the molar mass of the structure shown. Square brackets hold non-standard residues; d marks the D form. Ends that are not written are not given here. Peptide text beside a SMILES is read from it.

Columns and labels:
human red blood cells = test: Hemolytic activity; assay type: cell-based; settings: red cells of human, 18 h
Procedure: Human red blood cells (Zenbio, North Carolina, USA) and peptides were separately diluted in PBS (blood concentration, 8%). The blood cell and peptide solutions were then mixed in 96-well polyethylene plates (SPL, Gyeonggi-do, Korea) and incubated for 18 h at 37 °C. The final concentration of human red blood cells was 4%, while peptide concentrations were 100 μM, 50 μM, 25 μM, 12.5 μM, 6.25 μM, 3.13 μM, 1.56 μM, and 0.78 μM. After incubation, the plates were centrifuged at 1000 × g for 5 min, and the supernatants were transferred to 96-well polyethylene plates. Hemolysis levels were determined by measuring the absorbance at 540 nm with a SpectraMax plate spectrophotometer (Molecular Devices, California, USA). Control samples were treated with 1% Triton X-100 (for 100% hemolysis) or solution with 0 μM peptide (for 0% hemolysis) and melittin (for positive control). Each experiment was performed in triplicate.

MDR S. aureus = test: microbe, parasite or virus in culture; settings: CLSI broth microdilution; CAMHB with 50 mg/L Ca2+, 10 mg/L Mg2+; 5 × 10^5 CFU/ml; 18 h 37 °C; triplicate; strain KCCM 40510
From the text: (§1) MDR Pseudomonas aeruginosa (CCARM 2180) was purchased from the Culture Collection of Antimicrobial Resistance Microbes (Seoul, Republic of Korea). MDR Acinetobacter baumannii (ATCC BAA-1605) and MDR Enterococcus faecalis (ATCC 51575) were purchased from the American Type Culture Collection (Manassas, VA, USA). MDR Staphylococcus aureus (KCCM 40510) was purchased from the Korean Culture Center of Microorganisms (Seoul, Republic of Korea). S. aureus (KCTC 1621) was purchased from the Korean Collection for Type Cultures. A. baumannii (KCCM 40203) was purchased from the Korean Culture Center of Microorganisms (Seoul, Republic of Korea).
(§2) To assess antimicrobial activity, the MIC50 and MIC90 were measured using broth microdilution following CLSI guidelines. […] Each experiment was performed in triplicate. Meropenem (Sigma, Darmstadt, Germany) and colistin were used as control antibiotics. Cation-adjusted Mueller–Hinton broth (CAMHB) (Becton, Dickinson and Company, Franklin Lakes, USA) with supplied calcium (50 mg/L) and magnesium (10 mg/L) was used for the CLSI-test condition. Bacteria in midlog phase and peptides were separately diluted in CAMHB. The bacteria and peptide solutions were then mixed in 96-well polyethylene plates (SPL, Gyeonggi-do, Korea) and incubated for 18 h at 37 °C. The final concentration for bacteria was 5 × 10^5 CFU/ml. […] The MIC was defined to be the lowest concentration of peptide without visible turbidity by comparing with control antibiotics with the unaided eye. […] Each experiment was performed in triplicate. MICs in albumin and acetic acid solutions were measured using the same protocol but with 0.2% bovine serum albumin (Bovogen, Keilor, Australia), 0.01% acetic acid (Merck, New Jersey, USA), and CAMHB with both calcium and magnesium. In addition, MICs used in the antibiotic resistance acquisition test, the outer–inner membrane permeation test, and the transmembrane potential test and for FE-SEM were individually determined. The final bacterial concentrations used were as follows: for resistance acquisition, optical density (OD) 0.01; for outer–inner membrane permeability assays (LB), OD 0.1; for the transmembrane potential test, 1 × 10^8 CFU/ml (OD 0.171); […]. Inhibitory activity unidentifiable by direct observation was determined by counting the CFUs. Each experiment was performed at least twice.

MDR E. faecalis = test: microbe, parasite or virus in culture; settings: CLSI broth microdilution; CAMHB with 50 mg/L Ca2+, 10 mg/L Mg2+; 5 × 10^5 CFU/ml; 18 h 37 °C; triplicate; strain ATCC 51575
From the text: as §1, §2

MDR A. baumannii = test: microbe, parasite or virus in culture; settings: CLSI broth microdilution; CAMHB with 50 mg/L Ca2+, 10 mg/L Mg2+; 5 × 10^5 CFU/ml; 18 h 37 °C; triplicate; strain ATCC BAA-1605
From the text: as §1, §2

MDR P. aeruginosa = test: microbe, parasite or virus in culture; settings: CLSI broth microdilution; CAMHB with 50 mg/L Ca2+, 10 mg/L Mg2+; 5 × 10^5 CFU/ml; 18 h 37 °C; no visible turbidity; triplicate; strain CCARM 2180
From the text: as §1, §2

Molecule | Hemolysis percent, 25 μM (human red blood cells) [%] | Hemolysis percent, 50 μM (human red blood cells) [%] | Hemolysis percent, 100 μM (human red blood cells) [%] | Minimum inhibitory concentrations, MDR S. aureus (MDR S. aureus) [µM] | Minimum inhibitory concentrations, MDR E. faecalis (MDR E. faecalis) [µM] | Minimum inhibitory concentrations, MDR A. baumannii (MDR A. baumannii) [µM] | Minimum inhibitory concentrations, MDR P. aeruginosa (MDR P. aeruginosa) [µM]
CC[C@@H](C)[C@@H](NC(=O)[C@@H](Cc1c[nH]c2ccccc12)NC(=O)[C@H](NC(=O)[C@@H](CC(C)C)NC(=O)[C@H](N)Cc1c[nH]c2ccccc12)C(C)C)C(=O)N[C@H](Cc1c[nH]c2ccccc12)C(=O)N[C@H](CCCNC(=N)N)C(=O)N[C@H](CCCNC(=N)N)C(N)=O [WCopW32] (H-[dW][dL][dV][dW][dI][dW][dR][dR]-NH2) | 1.66 ± 0.11 | 2.95 ± 0.21 | 4.53 ±0.01 | 0.63 (≈ 0.765 µg/mL) | 0.63 (≈ 0.765 µg/mL) | 2.5 (≈ 3.03 µg/mL) | 
CC[C@@H](C)[C@@H](NC(=O)[C@@H](Cc1c[nH]c2ccccc12)NC(=O)[C@H](NC(=O)[C@@H](CC(C)C)NC(=O)[C@@H](Cc1c[nH]c2ccccc12)NC(=O)[C@H](N)CCCCN)C(C)C)C(=O)N[C@H](Cc1c[nH]c2ccccc12)C(=O)N[C@H](CCCNC(=N)N)C(=O)N[C@H](CCCNC(=N)N)C(=O)N[C@H](CCCNC(=N)N)C(N)=O [WCopW35] (H-[dK][dW][dL][dV][dW][dI][dW][dR][dR][dR]-NH2) | 1.18 ±0.34 | 2.71 ±0.63 | 6.07 ±1.01 | 0.63 (≈ 0.944 µg/mL) |  | 0.63 (≈ 0.944 µg/mL) | 2.5 (≈ 3.74 µg/mL)
CC[C@@H](C)[C@@H](NC(=O)[C@@H](Cc1c[nH]c2ccccc12)NC(=O)[C@@H](CC(C)C)NC(=O)[C@H](N)Cc1c[nH]c2ccccc12)C(=O)N[C@H](Cc1c[nH]c2ccccc12)C(=O)N[C@H](CCCNC(=N)N)C(=O)N[C@H](CCCNC(=N)N)C(=O)N[C@H](CCCNC(=N)N)C(N)=O [WCopW41] (H-[dW][dL][dW][dI][dW][dR][dR][dR]-NH2) | 0.01 ±0.01 | 0.04 ± 0.02 | 0.42 ±0.06 |  | 1.25 (≈ 1.59 µg/mL) | 2.5 (≈ 3.18 µg/mL) | 
CC[C@@H](C)[C@@H](NC(=O)[C@@H](Cc1c[nH]c2ccccc12)NC(=O)[C@@H](CCCNC(=N)N)NC(=O)[C@H](N)CCCNC(=N)N)C(=O)N[C@H](Cc1c[nH]c2ccccc12)C(=O)N[C@@H](C(=O)N[C@@H](C(=O)N[C@H](Cc1c[nH]c2ccccc12)C(=O)N[C@H](CCCNC(=N)N)C(N)=O)[C@H](C)CC)C(C)C [WCopW54] (H-[dR][dR][dW][dI][dW][dV][dI][dW][dR]-NH2) | 8.38 ± 1.14 | 11.43 ± 2.42 | 35.13 ± 4.13 | 0.63 (≈ 0.863 µg/mL) |  | 0.63 (≈ 0.863 µg/mL) | 2.5 (≈ 3.42 µg/mL)
CC[C@@H](C)[C@@H](NC(=O)[C@@H](Cc1c[nH]c2ccccc12)NC(=O)[C@@H](CCCNC(=N)N)NC(=O)[C@@H](CCCNC(=N)N)NC(=O)[C@H](N)CCCNC(=N)N)C(=O)N[C@H](Cc1c[nH]c2ccccc12)C(=O)N[C@@H](C(=O)N[C@@H](C(=O)N[C@H](Cc1c[nH]c2ccccc12)C(N)=O)[C@H](C)CC)[C@H](C)CC [WCopW60] (H-[dR][dR][dR][dW][dI][dW][dI][dI][dW]-NH2) | 15.51 ± 0.64 | 15.14 ± 3.22 | 15.17 ± 0.19 | 0.63 (≈ 0.872 µg/mL) |  | 1.25 (≈ 1.73 µg/mL) | 5 (≈ 6.92 µg/mL)
CC[C@@H](C)[C@@H](NC(=O)[C@H](N)Cc1c[nH]c2ccccc12)C(=O)N[C@@H](C(=O)N[C@H](Cc1c[nH]c2ccccc12)C(=O)N[C@@H](C(=O)N[C@H](Cc1c[nH]c2ccccc12)C(=O)N[C@H](CCCNC(=N)N)C(=O)N[C@H](CCCNC(=N)N)C(=O)N[C@H](CCCNC(=N)N)C(N)=O)[C@H](C)CC)[C@H](C)CC [WCopW61] (H-[dW][dI][dI][dW][dI][dW][dR][dR][dR]-NH2) | 6.90 ± 0.03 | 8.91 ± 0.75 | 11.6 ±0.99 | 0.63 (≈ 0.872 µg/mL) |  | 1.25 (≈ 1.73 µg/mL) | 5 (≈ 6.92 µg/mL)
CC[C@@H](C)[C@@H](NC(=O)[C@@H](Cc1c[nH]c2ccccc12)NC(=O)[C@@H](CCC(=O)O)NC(=O)[C@@H](CC(C)C)NC(=O)[C@H](N)Cc1c[nH]c2ccccc12)C(=O)NCC(=O)N[C@H](CC(C)C)C(=O)N[C@H](CCCNC(=N)N)C(=O)N[C@H](CCCCN)C(=O)N[C@H](CCCCN)C(=O)N[C@H](CCCNC(=N)N)C(N)=O [WCopWE] (H-[dW][dL][dE][dW][dI]G[dL][dR][dK][dK][dR]-NH2) |  |  |  | >20 | >20 | 10 (≈ 14.8 µg/mL) | >20
CC[C@@H](C)[C@@H](NC(=O)[C@@H](Cc1c[nH]c2ccccc12)NC(=O)[C@@H](Cc1ccccc1)NC(=O)[C@@H](CC(C)C)NC(=O)[C@H](N)Cc1c[nH]c2ccccc12)C(=O)NCC(=O)N[C@H](CC(C)C)C(=O)N[C@H](CCCNC(=N)N)C(=O)N[C@H](CCCCN)C(=O)N[C@H](CCCCN)C(=O)N[C@H](CCCNC(=N)N)C(N)=O [WCopWF] (H-[dW][dL][dF][dW][dI]G[dL][dR][dK][dK][dR]-NH2) |  |  |  | 2.5 (≈ 3.75 µg/mL) | 2.5 (≈ 3.75 µg/mL) | 1.25 (≈ 1.88 µg/mL) | 10 (≈ 15 µg/mL)
CC[C@@H](C)[C@@H](NC(=O)[C@@H](Cc1c[nH]c2ccccc12)NC(=O)[C@@H](CCCCN)NC(=O)[C@@H](CC(C)C)NC(=O)[C@H](N)Cc1c[nH]c2ccccc12)C(=O)NCC(=O)N[C@H](CC(C)C)C(=O)N[C@H](CCCNC(=N)N)C(=O)N[C@H](CCCCN)C(=O)N[C@H](CCCCN)C(=O)N[C@H](CCCNC(=N)N)C(N)=O [WCopWK] (H-[dW][dL][dK][dW][dI]G[dL][dR][dK][dK][dR]-NH2) |  |  |  | >20 | >20 | >20 | >20
CC[C@@H](C)[C@@H](NC(=O)[C@@H](Cc1c[nH]c2ccccc12)NC(=O)[C@H](NC(=O)[C@@H](CC(C)C)NC(=O)[C@H](N)Cc1c[nH]c2ccccc12)C(C)C)C(=O)NCC(=O)N[C@H](CC(C)C)C(=O)N[C@H](CCCNC(=N)N)C(=O)N[C@H](CCCCN)C(=O)N[C@H](CCCCN)C(=O)N[C@H](CCCNC(=N)N)C(N)=O [WCopWV] (H-[dW][dL][dV][dW][dI]G[dL][dR][dK][dK][dR]-NH2) |  |  |  | 2.5 (≈ 3.63 µg/mL) | 2.5 (≈ 3.63 µg/mL) | 1.25 (≈ 1.82 µg/mL) | 10 (≈ 14.5 µg/mL)
WLLWIALRKKR-NH2 [WCopW1] | 7.03 | 10.46 | 19.40 |  |  |  | > 20
